Converted amounts (≈) assume the structure as drawn.
Key:
Format in all cases: cell-based
[1] = tested on: Enterococcus faecalis (EFA); test: MIC, two-fold agar dilution (CLSI), clinical isolates
In short: (§1)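 Samples are serially diluted two-fold in agar following CLSI guidance. Plates are then inoculated with the tested strains. The lowest inhibiting concentration is recorded as MIC.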

[2] = tested on: Enterococcus faecium (EFM); test: as above
In short: as §1

[3] = tested on: Escherichia coli (including ESBLs, non-ESBLs); test: as above
In short: as §1

[4] = tested on: Moraxella catarrhalis (BCA); test: as above; details: for Anti-bacterial activity (MIC), strain BCA 14-10: clinical isolate BCA 14-10
In short: as §1

[5] = tested on: Streptococcus pneoumoniae (SPN); test: as above
In short: as §1

[6] = tested on: methicillin-resistant Staphylococcus aureus (MRSA); test: as above
In short: as §1

[7] = tested on: methicillin-resistant Staphylococcus epidermidis (MRSE); test: as above
In short: as §1

[8] = tested on: methicillin-sensitive Staphylococcus aureus (MSSA); test: as above
In short: as §1

[9] = tested on: methicillin-sensitive Staphylococcus epidermidis (MSSE); test: as above
In short: as §1

[10] = tested on: HCT-116 colorectal cancer cell line; test: CCK-8 proliferation inhibition; details: concentration of 30 μM, 72 hours, CCK-8; for inhibition at 30 µM: Homo sapiens, HCT-116, 72 h, read-out: HCT116 inhibition rate/%; for HCT116 inhibition rate/%: 30 µM
In short: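 Viability read-out: 1:10 diluted CCK-8 after 72 h compound exposure at 37 °C, 5% CO2. Cells (2000/well, McCoy's 5A plus 10% newborn bovine serum) pre-cultured overnight; vehicle control 1‰ DMSO.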

[11] = tested on: A549 lung cancer cell line; test: CCK-8 proliferation inhibition; details: concentration of 30 μM; for inhibition at 30 µM: Homo sapiens, A549, 72 h
In short: (§2)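 Plating at 2000 cells/well, then incubation overnight at 37° C. Next, a range of compound concentrations for 72 hours (control 1‰ DMSO). Finally, medium decanted and CCK-8 diluted 1:10 added.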

[12] = tested on: BEL-7402 liver cancer cell line; test: CCK-8 proliferation inhibition; details: concentration of 30 μM; for Inhibition of proliferation, Liver cancer BEL-7402: 72 hours, 30 µM
In short: as §2

[13] = tested on: MGC-803 gastric cancer cell line; test: CCK-8 proliferation inhibition; details: Homo sapiens, MGC-803, 72 h, concentration of 30 μM
In short: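 Growth inhibition measured by CCK-8 read-out after 72 h continuous compound treatment, 1‰ DMSO vehicle as control. Cells plated 2000/well the night before at 37 °C, 5% CO2; medium was 1640 for Jurkat and MGC-803, F12 for PC3, DMEM high glucose for MCF-7, each with 10% newborn bovine serum.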

## O=CN(O)C[C@@H](CC1CCCC1)C(=O)N1CC2(CC2)C[C@H]1C(=O)Nc1ncco1 [Example 36]
[1]; strain EFA 15-1
  MIC (anti-bacterial activity): 16 µg/mL (≈ 39.6 µM)
[1]; strain EFA 15-2
  MIC (anti-bacterial activity): 16 µg/mL (≈ 39.6 µM)
[1]; strain EFA 15-3
  MIC (anti-bacterial activity): 16 µg/mL (≈ 39.6 µM)
[1]; strain EFA 15-4
  MIC (anti-bacterial activity): 16 µg/mL (≈ 39.6 µM)
[1]; strain EFA 15-5
  MIC (anti-bacterial activity): 16 µg/mL (≈ 39.6 µM)
[1]; strain EFA 15-6
  MIC (anti-bacterial activity): 16 µg/mL (≈ 39.6 µM)
[1]; strain EFA 15-9
  MIC (anti-bacterial activity): 16 µg/mL (≈ 39.6 µM)
[2]; strain EFM 15-1
  MIC (anti-bacterial activity): 16 µg/mL (≈ 39.6 µM)
[2]; strain EFM 15-2
  MIC (anti-bacterial activity): 8 µg/mL (≈ 19.8 µM)
[2]; strain EFM 15-3
  MIC (anti-bacterial activity): 2 µg/mL (≈ 4.94 µM)
[2]; strain EFM 15-4
  MIC (anti-bacterial activity): 8 µg/mL (≈ 19.8 µM)
[2]; strain EFM 15-5
  MIC (anti-bacterial activity): 8 µg/mL (≈ 19.8 µM)
[2]; strain EFM 15-6
  MIC (anti-bacterial activity): 8 µg/mL (≈ 19.8 µM)
[3]; strain ECO+ 15-1
  MIC (anti-bacterial activity): 8 µg/mL (≈ 19.8 µM)
[3]; strain ECO+ 15-2
  MIC (anti-bacterial activity): > 32 µg/mL
[3]; strain ECO+ 15-3
  MIC (anti-bacterial activity): > 32 µg/mL
[3]; strain ECO+ 15-4
  MIC (anti-bacterial activity): > 32 µg/mL
[3]; strain ECO− 15-1
  MIC (anti-bacterial activity): > 32 µg/mL
[3]; strain ECO− 15-2
  MIC (anti-bacterial activity): 32 µg/mL (≈ 79.1 µM)
[3]; strain ECO− 15-3
  MIC (anti-bacterial activity): 32 µg/mL (≈ 79.1 µM)
[3]; strain ECO− 15-4
  MIC (anti-bacterial activity): 32 µg/mL (≈ 79.1 µM)
[4]
  Anti-bacterial activity (MIC), strain BCA 14-10: 2 µg/mL
[4]; strain BCA 14-1
  MIC (anti-bacterial activity): 16 µg/mL (≈ 39.6 µM)
[4]; strain BCA 14-4
  MIC (anti-bacterial activity): 16 µg/mL (≈ 39.6 µM)
[4]; strain BCA 14-5
  MIC (anti-bacterial activity): 4 µg/mL (≈ 9.89 µM)
[4]; strain BCA 14-6
  MIC (anti-bacterial activity): 16 µg/mL (≈ 39.6 µM)
[4]; strain BCA 14-7
  MIC (anti-bacterial activity): 4 µg/mL (≈ 9.89 µM)
[4]; strain BCA 14-8
  MIC (anti-bacterial activity): 8 µg/mL (≈ 19.8 µM)
[5]; strain SPN 16-2
  MIC (anti-bacterial activity): 2 µg/mL (≈ 4.94 µM)
[5]; strain SPN 16-4
  MIC (anti-bacterial activity): 16 µg/mL (≈ 39.6 µM)
[6]; strain MRSA 15-1
  MIC (anti-bacterial activity): 4 µg/mL (≈ 9.89 µM)
[6]; strain MRSA 15-2
  MIC (anti-bacterial activity): 8 µg/mL (≈ 19.8 µM)
[6]; strain MRSA 15-3
  MIC (anti-bacterial activity): 4 µg/mL (≈ 9.89 µM)
[6]; strain MRSA 15-4
  MIC (anti-bacterial activity): 8 µg/mL (≈ 19.8 µM)
[7]; strain MRSE 15-1
  MIC (anti-bacterial activity): 4 µg/mL (≈ 9.89 µM)
[7]; strain MRSE 15-2
  MIC (anti-bacterial activity): 8 µg/mL (≈ 19.8 µM)
[7]; strain MRSE 15-3
  MIC (anti-bacterial activity): 8 µg/mL (≈ 19.8 µM)
[7]; strain MRSE 15-7
  MIC (anti-bacterial activity): 8 µg/mL (≈ 19.8 µM)
[8]; strain MSSA 15-3
  MIC (anti-bacterial activity): 8 µg/mL (≈ 19.8 µM)
[8]; strain MSSA 15-4
  MIC (anti-bacterial activity): 8 µg/mL (≈ 19.8 µM)
[8]; strain MSSA 15-5
  MIC (anti-bacterial activity): 8 µg/mL (≈ 19.8 µM)
[8]; strain MSSA 15-6
  MIC (anti-bacterial activity): 4 µg/mL (≈ 9.89 µM)
[9]; strain MSSE 15-3
  MIC (anti-bacterial activity): 8 µg/mL (≈ 19.8 µM)
[9]; strain MSSE 15-4
  MIC (anti-bacterial activity): 8 µg/mL (≈ 19.8 µM)
[9]; strain MSSE 15-5
  MIC (anti-bacterial activity): 8 µg/mL (≈ 19.8 µM)
[9]; strain MSSE 15-6
  MIC (anti-bacterial activity): 8 µg/mL (≈ 19.8 µM)
[10]
  inhibition at 30 µM: > 50%
  HCT116 inhibition rate/%: 60%
[11]
  inhibition at 30 µM: 26%
[12]
  Inhibition of proliferation, Liver cancer BEL-7402: 73%
[13]
  inhibition at 30 µM: 46%

## CCCC[C@H](CC(=O)NO)C(=O)N1CC2(CC2)C[C@H]1C(=O)Nc1ccc(F)cn1 [Example 46, (S)—N-(5-fluoropyridin-2-yl)-5-((R)-2-(2-(hydroxyamino)-2-oxoethyl)hexanoyl)-5-spiro[2.4]heptane-6-carboxamide]
[1]; clinical isolate EFA 15-1
  Anti-bacterial activity (MIC), strain EFA 15-1: > 32 µg/mL
[1]; clinical isolate EFA 15-2
  Anti-bacterial activity (MIC), strain EFA 15-2: > 32 µg/mL
[1]; clinical isolate EFA 15-3
  Anti-bacterial activity (MIC), strain EFA 15-3: > 32 µg/mL
[1]; clinical isolate EFA 15-4
  Anti-bacterial activity (MIC), strain EFA 15-4: > 32 µg/mL
[1]; clinical isolate EFA 15-5
  Anti-bacterial activity (MIC), strain EFA 15-5: > 32 µg/mL
[1]; clinical isolate EFA 15-6
  Anti-bacterial activity (MIC), strain EFA 15-6: > 32 µg/mL
[1]; clinical isolate EFA 15-9
  Anti-bacterial activity (MIC), strain EFA 15-9: 4 µg/mL
[2]; clinical isolate EFM 15-1
  Anti-bacterial activity (MIC), strain EFM 15-1: > 32 µg/mL
[2]; clinical isolate EFM 15-2
  Anti-bacterial activity (MIC), strain EFM 15-2: > 32 µg/mL
[2]; clinical isolate EFM 15-3
  Anti-bacterial activity (MIC), strain EFM 15-3: > 32 µg/mL
[2]; clinical isolate EFM 15-4
  Anti-bacterial activity (MIC), strain EFM 15-4: > 32 µg/mL
[2]; clinical isolate EFM 15-5
  Anti-bacterial activity (MIC), strain EFM 15-5: 0.5 µg/mL
[2]; clinical isolate EFM 15-6
  Anti-bacterial activity (MIC), strain EFM 15-6: 1 µg/mL
[3]; clinical isolate ECO+ 15-1
  Anti-bacterial activity (MIC), strain ECO+ 15-1: 32 µg/mL
[3]; clinical isolate ECO+ 15-2
  Anti-bacterial activity (MIC), strain ECO+ 15-2: > 32 µg/mL
[3]; clinical isolate ECO+ 15-3
  Anti-bacterial activity (MIC), strain ECO+ 15-3: > 32 µg/mL
[3]; clinical isolate ECO+ 15-4
  Anti-bacterial activity (MIC), strain ECO+ 15-4: 1 µg/mL
[3]; clinical isolate ECO− 15-1
  Anti-bacterial activity (MIC), strain ECO− 15-1: > 32 µg/mL
[3]; clinical isolate ECO− 15-2
  Anti-bacterial activity (MIC), strain ECO− 15-2: > 32 µg/mL
[3]; clinical isolate ECO− 15-3
  Anti-bacterial activity (MIC), strain ECO− 15-3: > 32 µg/mL
[3]; clinical isolate ECO− 15-4
  Anti-bacterial activity (MIC), strain ECO− 15-4: > 32 µg/mL
[4]; clinical isolate BCA 14-1
  Anti-bacterial activity (MIC), strain BCA 14-1: 1 µg/mL
[4]; clinical isolate BCA 14-4
  Anti-bacterial activity (MIC), strain BCA 14-4: 1 µg/mL
[4]; clinical isolate BCA 14-5
  Anti-bacterial activity (MIC), strain BCA 14-5: 0.5 µg/mL
[4]; clinical isolate BCA 14-6
  Anti-bacterial activity (MIC), strain BCA 14-6: 0.5 µg/mL
[4]; clinical isolate BCA 14-7
  Anti-bacterial activity (MIC), strain BCA 14-7: 1 µg/mL
[4]; clinical isolate BCA 14-8
  Anti-bacterial activity (MIC), strain BCA 14-8: 1 µg/mL
[4]
  Anti-bacterial activity (MIC), strain BCA 14-10: 0.5 µg/mL
[5]; clinical isolate SPN 16-2
  Anti-bacterial activity (MIC), strain SPN 16-2: 0.5 µg/mL
[5]; clinical isolate SPN 16-4
  Anti-bacterial activity (MIC), strain SPN 16-4: 0.5 µg/mL
[6]; clinical isolate MRSA 15-1
  Anti-bacterial activity (MIC), strain MRSA 15-1: 0.25 µg/mL
[6]; clinical isolate MRSA 15-2
  Anti-bacterial activity (MIC), strain MRSA 15-2: 1 µg/mL
[6]; clinical isolate MRSA 15-3
  Anti-bacterial activity (MIC), strain MRSA 15-3: 1 µg/mL
[6]; clinical isolate MRSA 15-4
  Anti-bacterial activity (MIC), strain MRSA 15-4: 1 µg/mL
[7]; clinical isolate MRSE 15-1
  Anti-bacterial activity (MIC), strain MRSE 15-1: 1 µg/mL
[7]; clinical isolate MRSE 15-2
  Anti-bacterial activity (MIC), strain MRSE 15-2: 1 µg/mL
[7]; clinical isolate MRSE 15-3
  Anti-bacterial activity (MIC), strain MRSE 15-3: 1 µg/mL
[7]; clinical isolate MRSE 15-7
  Anti-bacterial activity (MIC), strain MRSE 15-7: 1 µg/mL
[8]; clinical isolate MSSA 15-3
  Anti-bacterial activity (MIC), strain MSSA 15-3: 0.25 µg/mL
[8]; clinical isolate MSSA 15-4
  Anti-bacterial activity (MIC), strain MSSA 15-4: 1 µg/mL
[8]; clinical isolate MSSA 15-5
  Anti-bacterial activity (MIC), strain MSSA 15-5: 1 µg/mL
[8]; clinical isolate MSSA 15-6
  Anti-bacterial activity (MIC), strain MSSA 15-6: > 32 µg/mL
[9]; clinical isolate MSSE 15-3
  Anti-bacterial activity (MIC), strain MSSE 15-3: 1 µg/mL
[9]; clinical isolate MSSE 15-4
  Anti-bacterial activity (MIC), strain MSSE 15-4: 1 µg/mL
[9]; clinical isolate MSSE 15-5
  Anti-bacterial activity (MIC), strain MSSE 15-5: 1 µg/mL
[9]; clinical isolate MSSE 15-6
  Anti-bacterial activity (MIC), strain MSSE 15-6: 1 µg/mL
[10]
  inhibition at 30 µM: > 50%
  HCT116 inhibition rate/%: 58%
[11]
  inhibition at 30 µM: > 50%
[11]; 72 hours, 30 µM
  Inhibition of proliferation, Lung cancer A549: 60%
[12]; Homo sapiens, Bel-7402, 72 h
  inhibition at 30 µM: > 50%
[12]
  Inhibition of proliferation, Liver cancer BEL-7402: 70%
[13]
  inhibition at 30 µM: 48%
